This is an account of results in patent US4473573A, “N-(2-methoxyethyl)-noroxymorphone and pharmaceutical compositions for relieving pain containing same” (Boehringer Ingelheim KG, priority 1982, dated 1984).

Data set [1] concerns morphine-dependent monkeys. Kind of data set: withdrawal test in morphine-dependent monkeys. Type of data set: in vivo. From the text:
(§1) The non-morphine-like activity profile can be recognized from the absence of typical side effects produced by opiates.
In morphine-dependent monkeys there is found to be increased sensitivity of morphine antagonists which trigger withdrawal symptoms, dependent upon dosage.

A further data set in a line: acute toxicity (LD50). The note with it: mouse, in vivo, sc; s. c., mice. From the text: (§2) The comparison values are 1600 for the standard analgesic morphine and 169 for the agonist-antagonist pentazocine which is used therapeutically as an analgesic.
Data set [2] has as its system mice. Kind of data set: inhibition of locomotion (sedation). The following applies: up to 100 mg/kg for Formula I, comparison substances in or near the therapeutic dosage range. Type of data set: in vivo. From the text: Another advantage of the compound of Formula I over newer substances, not yet used therapeutically, selected from the opioid kappa agonists of the benzomorphane series, to which a high therapeutic range is also ascribed (for example, 1800 for ethylketazocine), is the absence of any strong sedation. This can be recognized in the comparison substances as an inhibition of locomotion in mice in or near the therapeutic dosage range. In the compound of Formula I, however, this effect was not observed in the range tested up to very high doses of 100 mg/kg.

Data set [3] deals with analgesia produced by morphine. As to the kind of experiment: Haffner test, reversal of the analgesia produced by morphine. Type of data set: in vivo. The note with it: s. c.; for ED50: sc, read-out: AD50, Haffner test.
The test system of data set [4] is mice. Kind of data set: therapeutic range based upon the effect in the writhing test. The following applies: LD50 s. c. based upon the effect in the writhing test. Type of data set: in vivo.
Source text: as §2
(In writhing tests, fewer writhes than in controls are read as antinociception.)

Data set [5] is described as follows: writhing test (analgesic property). Type of data set: in vivo. The following applies: s. c.; for ED50: sc.
Data set [6] can be described thus: activity compared with the compound of Formula I (test not named). The note with it: for activity relative to the compound of Formula I: compound of Formula I = 1; for effect of etherification of the phenolic hydroxy group on activity: compared with Formula I.
Data set [7] can be described thus: Straub morphine tail phenomenon / compulsive circular motion (typical opiate side effects). Type of data set: in vivo. The note with it: hydrochloride.
Source text: as §1

The subject of data set [8] is mice. The note with it: ascribed; opioid kappa agonist of the benzomorphane series; cited from earlier work.
For data set [9] the following is noted: cited from earlier work.

Where a name gives a salt, the structure may show the parent alone. Read-outs that look alike come from different tables or passages of the source.

For `COCCN1CC[C@]23c4c5ccc(O)c4O[C@H]2C(=O)CC[C@@]3(O)[C@H]1C5` [Formula I, N-(2-methoxyethyl)-noroxymorphone], the “antagonist strength compared with naloxone” value in [1] (morphine-dependent monkeys, triggering of withdrawal symptoms) was “as strong as naloxone”. In “acute toxicity (LD50)”, the 50% lethal dose (LD50) (usually the dose expected to kill half of the subjects tested) amounted to 1350 mg/kg. Moreover, the “inhibition of locomotion (strong sedation)” value in the data set with mice [2] is “not observed”. Besides, the “antagonistic activity relative to naloxone” value in [3] (Haffner test, naloxone = 1) is recorded as “about 1/10”. Also, the ED50 in [3] was 0.3 mg/kg; in [5] it was 0.013 mg/kg. Besides, the therapeutic range with mice [4] was 103,846. Further, in data set [5] (relative to morphine), the “times stronger than morphine, writhing test” value is listed as “about 36 times”. Besides, in data set [5] (relative to oxymorphone), the “times stronger than oxymorphone, writhing test” value is “about 2.5 times”.

Consider `CCOCCN1CC[C@]23c4c5ccc(O)c4O[C@H]2C(=O)CC[C@@]3(O)[C@H]1C5` [Formula IIIa], for which the “activity relative to the compound of Formula I” value in data set [6] is on record as 1/20.

Regarding `COCCN1CC[C@]23c4c5ccc(OC)c4O[C@H]2C(=O)CC[C@@]3(O)[C@H]1C5` [Formula IIIb], in data set [6], the “effect of etherification of the phenolic hydroxy group on activity” value was “reduces the activity” and the “activity relative to the compound of Formula I” value is reported as 1/84.

In the case of `CCOCCN1CC[C@]23c4c5ccc(OC)c4O[C@H]2C(=O)CC[C@@]3(O)[C@H]1C5` [Formula IIIc], in data set [6], the “effect of etherification of the phenolic hydroxy group on activity” value is given as “reduces the activity”.

Regarding `COCCCN1CC[C@]23c4c5ccc(O)c4O[C@H]2C(=O)CC[C@@]3(O)[C@H]1C5` [Formula IIId], the “activity relative to the compound of Formula I” value in [6] is given as 1/25.

For `COCCN1CC[C@]23c4c5ccc(O)c4O[C@H]2C(=O)CC[C@@]3(O)[C@H]1C5` [N-(2-methoxyethyl)-noroxymorphone hydrochloride], the “relieving the withdrawal symptoms in morphine-dependent monkeys” value in data set [1] (after morphine has been withdrawn, hydrochloride) is given as “not capable of relieving the withdrawal symptoms”. Further, the “effect on withdrawal symptoms (antagonist behaviour)” value in [1] (morphine-dependent monkeys, hydrochloride) was “aggravates the withdrawal symptoms”. In data set [7], the “Straub morphine tail phenomenon” value was “does not show” and the compulsive circular motion entry is reported as “does not show”.

With `CC[C@]12CCN(CC3CC3)[C@H](C(=O)c3ccc(O)cc31)[C@@H]2C` [ethylketazocine], in the data set with mice [8], the therapeutic range is given as 1800.

`CN1CC[C@]23c4c5ccc(O)c4O[C@H]2[C@@H](O)C=C[C@H]3[C@H]1C5` [morphine, reference compound] registered a therapeutic range with mice [4] of 1600. Moreover, in data set [5], the “ED50, writhing test” value was found to be 0.47 mg/kg.

On to `C=CCN1CC[C@]23c4c5ccc(O)c4O[C@H]2C(=O)CC[C@@]3(O)[C@H]1C5` [naloxone, reference compound], for which the ED50 in [3] is 0.03 mg/kg.

As for `O=C1CC[C@@]2(O)[C@H]3Cc4ccc(O)c5c4[C@@]2(CCN3CC2CC2)[C@H]1O5` [naltrexone], the antagonist character result in [9] (in vivo) is “pure antagonists”. The analgesic activity entry in data set [9] (pure antagonists) is reported as “no analgesic activity”.

`CN1CC[C@]23c4c5ccc(O)c4O[C@H]2C(=O)CC[C@@]3(O)[C@H]1C5` [oxymorphone]: in data set [5], the ED50 was 0.032 mg/kg.

With `CC(C)=CCN1CCC2(C)c3cc(O)ccc3CC1C2C` (centres unmarked) [pentazocine], in the data set on mice [4], the therapeutic range came out at 169.
